Structures can show the parent of a compound that is named as a salt.

For one assay, the target named is T1, mushroom tyrosinase (polyphenol oxidase) Sigma T3824 (Agaricus bisporus, UniProt C7FF04).
T1 construct: purchased Sigma T3824
T1 sequence (C7FF04 1-392 limits assumed): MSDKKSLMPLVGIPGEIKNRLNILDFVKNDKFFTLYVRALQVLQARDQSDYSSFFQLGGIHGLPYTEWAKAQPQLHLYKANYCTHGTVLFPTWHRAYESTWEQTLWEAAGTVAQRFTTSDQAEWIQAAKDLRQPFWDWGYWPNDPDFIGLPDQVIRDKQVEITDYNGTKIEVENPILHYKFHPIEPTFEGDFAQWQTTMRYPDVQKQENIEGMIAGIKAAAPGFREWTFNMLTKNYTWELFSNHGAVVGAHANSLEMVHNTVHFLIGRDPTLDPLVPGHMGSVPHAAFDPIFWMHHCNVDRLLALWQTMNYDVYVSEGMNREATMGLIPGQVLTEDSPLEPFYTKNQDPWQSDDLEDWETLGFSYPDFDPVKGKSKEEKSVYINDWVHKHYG
Nature of the assay: Testing of polymer production in enzymatic tyrosinase (polyphenol oxidase) reaction. The assay is classed as biochemical. Details: key: +++: Reacted within about 1 hour; ++: reacted within about 3 hours; +: reacted within about 24 hours; +/−: inconclusive results; −: no reaction. Conditions: approx. 50 mM potassium phosphate buffer pH 6.5, approx. 5 mM substrate, 100 to 10,000 units enzyme, observed over 24 hours. As for the experimental part: All reactions were carried out in approximately 50 mM potassium phosphate buffer, pH 6.5 with approximately 5 mM substrate and mushroom tyrosinase (polyphenol oxidase) Sigma T3824 in an amount of 100 to 10,000 units. Reaction volumes varied from 200 μl to 2 ml. In cases where substrates were not completely solubilized, then a saturated solution was used as the limit of solubility. In some cases, a solution of DMSO was used to increase solubility of the substrates. The enzyme was tested and shown to retain activity up to 50% DMSO. The reactions were observed over a 24 hour period for the production of polymers, and the presence and color of polymer and solution was recorded.
The production of polymers in each reaction was visible as a precipitate in the well of a 96 well plate or in the reaction mixture on a glass slide.
Consider `NCCc1ccc(O)cc1` [Tyramine], for which the “Result (polymer production in tyrosinase reaction)” value (from here on “Result”) is recorded as “+++ (Reacted within about 1 hour)”.

Regarding `Oc1ccc2cc[nH]c2c1` [6 Hydroxyindole], the “Result” value is listed as “++ (reacted within about 3 hours)”.

With `c1ccc2[nH]ccc2c1` [Indole], the “Result” value is on record as “−”.

Turning to `Oc1ccc2[nH]ccc2c1` [5-hydroxyindole], the “Result” value was “+++ (Reacted within about 1 hour)”.

Regarding `CN[C@@H](Cc1ccc(O)cc1)C(=O)O` [N-methyl tyrosine], the “Result” value is recorded as “++ (reacted within about 3 hours)”.

As for `Cl.NCCc1ccccc1` [Beta phenylethylamine HCL], the “Result” value is recorded as “+/−”.

`Cl.NCCc1ccc(O)cc1` [Tyramine HCl]: the “Result” value is given as “+++ (Reacted within about 1 hour)”.

Turning to `Oc1ccc2cc(O)ccc2c1` [2,6 dihydroxnaphthalene], the “Result” value is recorded as “+ (reacted within about 24 hours)”.

Turning to `N[C@@H](Cc1ccc(O)cc1)C(=O)O` [Tyrosine], the “Result” value is reported as “++ (reacted within about 3 hours)”.

Still in this assay, the particulars now being: as above; marked substrate(s) dissolved in 20% DMSO.
As for `Oc1ccc2c(c1)[nH]c1ccccc12` [2 Hydroxy carbazole], the “Result” value is given as “−”.

With `CC1=NCCc2c1[nH]c1cc(O)ccc21` [Harmalol HCl dehydrate], the “Result” value is given as “−”.

Regarding `Oc1ccc(-c2cc(-c3ccc(O)cc3)cc(-c3ccc(O)cc3)c2)cc1` [1,3,5 Tris(4hydroxyphenyl)benzene], the “Result” value was “+ (reacted within about 24 hours)”.
